Read-outs that look alike come from different tables or passages of the source.
Tests used:
[1] = DLS particle size distribution in Tris-HCl buffer; type: physicochemical; settings: 20 μM
Text: Given the amphiphilic nature of the complexes, with the functionalized phenanthroline ligand serving as a lipophilic tail and the Ru(II) core serving as a hydrophilic headgroup, it was of interest to investigate the potential tendency of the complexes to form micelle-like aggregates in aqueous solutions. […] Our focus was to investigate the aggregation behavior in a purely aqueous environment, without the use of cosolvents such as DMSO. Since complexes 5–7 could not be solubilized under these conditions, they were not included in the DLS analysis.
The particle size distribution of the complexes was determined by dynamic light scattering (DLS) using a Particle Analyzer Litesizer 500 (Anton Paar, Austria) at 25 °C. 20 μM solutions of complexes 1–4 and of [Ru(bpy)3]-Cl2 in Tris-HCl buffer, as well as 20 μM solutions of complexes 1–4 in Gibco DMEM (Dulbecco’s Modified Eagle Medium with high glucose, L-glutamine, pyruvate, 10% FBS, and without phenol red), were analyzed by DLS. The experiments were performed in triplicate, yielding similar results.

[2] = UV-vis absorption, emission spectra and luminescence quantum yield; type: physicochemical; settings: for Φ (luminescence quantum yield): air-equilibrated; for λem: excitation 450 nm
Procedure: We studied the absorption and emission properties of the complexes in different solvents including MeCN, MeOH, and Tris-HCl aqueous buffer (0.05 M, pH 7.4). Due to solubility limitations, only complexes 1–4 were studied in Tris-HCl aqueous buffer. Indicatively, the comparative UV–vis absorption and emission spectra of complexes 4 and 7 in MeCN at 298 K are presented in Figure e.
The photophysical data are summarized in Tables and , and all measurements were conducted in air-equilibrated solvents.
(§1) ^1H, ^1H–^1H COSY, and ^13C NMR spectra were recorded on a 500 MHz NMR spectrometer (Agilent). Absorption spectra were acquired by using a JASCO V-750 spectrophotometer. For recording the emission spectra, we used an Edinburgh Instruments FS5 spectrofluorometer equipped with a red-sensitive Hamamatsu R13456 photomultiplier tube (PMT) and a 150 W xenon arc lamp as the light source. All spectra were corrected for detector response using the correction files and software (Fluoracle) provided by the manufacturer. The luminescence quantum yields of the complexes were calculated using the optically dilute method with an air-equilibrated aqueous solution of [Ru(bpy)3]-Cl2 (Φem = 0.049, λex = 436 nm) as the standard solution. , Emission lifetime measurements were performed using an Edinburgh Instruments mini-τ lifetime spectrometer with a bandpass filter (±40 nm bandpass) at 650 nm. The excitation source was an Edinburgh Instruments picosecond pulsed LED (EPLED-320) with a peak wavelength of 326.8 nm and a pulse width of 910 ps. The detector was a thermoelectrically cooled, high-speed, red-sensitive photomultiplier tube (Hamamatsu H10720-01). The data were analyzed by using the software provided by the manufacturer (Fluoracle). For emission lifetime calculations, the experiments were performed in triplicate, yielding similar results. The MS spectra were acquired using an LC20AD Shimadzu connected to Shimadzu LCMS-2010EV, with a flow rate of 0.4 mL/min MeOH or MeCN + 0.1% formic acid. LCMS analysis was carried out on an Agilent 1260 Infinity with a Raptor C18 column (50 mm × 2.1 mm, 2.7 μm particle size). A two-minute gradient from 5% to 95% MeCN in water was used, supplemented with 0.1% formic acid.

[3] = Emission lifetime (time-resolved luminescence decay); type: physicochemical
Procedure: Given the changes in the aggregation profiles of the complexes in cell culture medium containing FBS, as observed by DLS analysis, we also examined their emission lifetimes under these conditions (Table and Figure S52F–J). For this analysis, an 80 μM solution of each complex was utilized to achieve an improved signal-to-background ratio. […] However, the emission decay behavior of complexes 2–4 differs markedly from that of the estrogen-free control and from that of [Ru(bpy)3]^2+. In a cell culture medium with 10% FBS, the decay profile of complex 1 can be fitted to a biexponential model, comprising a short-lived component (355 ns, 6.6% contribution), consistent with the monomeric species, and a long-lived component (672 ns, 93.4% contribution) attributable to the aggregated form. […] Consistent with the behavior observed in Tris-HCl buffer, the addition of MeCN to a solution of complex 3 in FBS-containing medium led to aggregate disruption once the MeCN content reached 30%, as evidenced by a decrease in emission lifetime to 436 ns, signaling the dominance of the nonaggregated form (Figure f). Overall, our findings collectively confirm that aggregation correlates with the observed emission enhancement in aqueous solutions and that complexes 1–4 predominantly exist as self-assembled micelle-like aggregates in the cell culture medium used for our cellular studies. Nevertheless, it cannot be unequivocally determined from these experiments whether the complexes preserve their aggregated form in the intracellular environment.
as §1

MCF-7 (ER+) cells [4] = experiment: MTS viability assay (dark and 457 nm light) in MCF-7; type: cell-based; settings: for IC50: MCF-7, 457 nm for 12 min at 6 h, 24 h incubation, MTS; for SI = selectivity index, [IC50(ER‑)]light/[IC50(ER+)]light: MDA-MB-453 (ER-) vs MCF-7 (ER+)
Procedure: (§2) We determined the cytotoxicity of all the complexes using the well-established MTS assay against two breast cancer cell lines: MCF-7, which is ER+, and MDA-MB-453, which is ER-.
(§3) In this experiment, the cells were irradiated with blue light (457 nm) for 12 min.
(§4) MDA-MB-453 and MCF-7 cells were grown in high-glucose Dulbecco’s Modified Eagle Medium (DMEM) containing 10% fetal bovine serum at 37 °C with 5% CO2 in humidified air.
(§5) For viability experiments, cells were seeded at a density of 20,000 cells per well in Greiner-Bio black μClear plates. After 24 h, the corresponding ruthenium complexes were added at the appropriate concentrations (30 nM to 100 μM for complexes 1-4 and 30 nM to 20 μM for 5–7, < 1% DMSO) and allowed to incubate. For the phototoxicity experiments, the plate was removed at the six-hour time point and irradiated for 12 min using a Lumidox 457 nm 96-LED array set to 8 mA (2 mW/cm^2, a total of 1.2 J/s). After an overall 24 h incubation period, the media were replaced with fresh media containing an MTS/PMS mixture as per the Promega protocol (MTS: 3-(4,5-dimethylthiazol-2-yl)-5-(3-carboxymethoxyphenyl)-2-(4-sulfophenyl)-2H-tetrazolium; PMS: phenazine methosulfate). After an additional 4 h had passed, the absorbance at 490 nm (MTS) and 635 nm (background) was measured. Cell viability was calculated from the dose-response curve of the absorbance (MTS – background).

MDA-MB-453 (ER-) cells = experiment: MTS viability assay (dark and 457 nm light) in MDA-MB-453; type: cell-based; settings: MDA-MB-453, 457 nm for 12 min at 6 h, 24 h incubation
Procedure: as §2, §3, §4, §5

[5] = system: MCF-7 (ER+) and MDA-MB-453 (ER−) cells; experiment: Cellular uptake of ruthenium by ICP-MS; type: cell-based; settings: 20 μM, 6 h, MCF-7 vs MDA-MB-453
Procedure: Thus, the cellular uptake of complexes 3 and 4 was evaluated and compared to the control complex 1 in ER+ (MCF-7) and ER– (MDA-MB-453) cell lines using inductively coupled plasma mass spectrometry (ICP-MS) (Figure b). […] This trend is consistent with its increased lipophilicity and the brighter red luminescence observed by microscopy for this complex. It is well established that lipophilicity can enhance membrane permeability and cellular internalization.
Cells were seeded at the appropriate density in 6-well plates (1 × 10^6 cells per well for MDA-MB-453 and 400,000 cells per well for MCF-7) and allowed to adhere for 24 h. Ruthenium complexes were added to the wells by direct dilution of a 10 mM DMSO stock solution to yield a final concentration of 20 μM in culture medium. After 6 h of incubation, the medium was removed, and the cells were washed three times with phosphate-buffered saline (PBS) to eliminate extracellular ruthenium. Cells were subsequently detached using trypsin, collected by centrifugation, and counted. […] The monitored isotope was 101Ru. A set of ruthenium calibration standards was used to establish and model the linear relationship between signal and concentration before the samples were injected, signal measured, and averaged across three consecutive signal acquisitions. The amount of metal detected in the cell samples was normalized to ppb per 1,000,000 cells.

MCF-7 (ER+) cells [6] = experiment: Luminescence microscopy of treated ER+ cells; type: cell-based; settings: Figure S62, 6 h incubation
Procedure: 3 Microscopy imaging of cells incubated with complex 3 (20 μΜ) and complex 4 (10 μΜ) for 6 h: brightfield (left), photosensitizer luminescence (middle), and overlaid (right) images. (b) Cellular uptake by ICP-MS of complexes 1, 3, and 4 (20 μM, 6 h) in MCF-7 (ER+) and MDA-MB-453 (ER−) cells.
For imaging experiments, cells were seeded at a density of 20,000 cells per well in Greiner-Bio black μClear plates. After 24 h, the corresponding ruthenium complexes were added at the appropriate concentrations. After 6 h, the cells were washed 3 times with media, and the media were replaced with phenol-red-free media. Compounds were imaged on an Eclipse-Ti2 Widefield system (Nikon), equipped with a Prime 95B sCMOS camera (Teledyne), pE-400 LED light source (CoolLED), a 20× or 40× objective, and emission filters for green (515/30 nm), orange (600/50 nm), red (641/75 nm), and far-red (705/72 nm). The bright-field channel was used to autofocus each well, after which the complexes were excited using a 450 nm laser and the red emission channel collected.

[7] = parameters: method as in doi:10.1021/ja00432a028; settings: H2O; cited from earlier work
[8] = in water; literature value, reference number not given; cited from earlier work
[9] = Tris-HCl buffer (0.05 M, pH 7.4), 298 K
[10] = Tris-HCl buffer (0.05 M, pH 7.4)
[11] = cell culture medium (DMEM, 10% FBS, no phenol red), 80 μM
[12] = cell culture medium with 10% FBS, biexponential fit

Row | Structure (SMILES) | aggregate size (DLS, particle size distribution by intensity) [1] | Φ (luminescence quantum yield) ([2]; MeCN (298 K)) | λabs [2, 9] | λem [2, 9] | τ1 ([3]; MeCN) | τ1 ([3]; MeOH) | τ1 [3, 10] | τ1 [3, 11] | IC50 (MCF-7 (ER+) cells [4]) | SI = selectivity index, [IC50(ER‑)]light/[IC50(ER+)]light (MCF-7 (ER+) cells [4]) | IC50 (MDA-MB-453 (ER-) cells) | also measured
1 | CCCCc1cn(-c2cc3cccnc3c3ncccc23)nn1.[Cl-].[Cl-].[Ru+2].c1ccc(-c2ccccn2)nc1.c1ccc(-c2ccccn2)nc1 [Complex 1, [Ru(bpy)2(L-1a)]Cl2] | around 100 nm | 2.1% | 449 nm | 635 nm | 165 ns | 225 ns | 599 ns | 355 ns | > 100 µM | NPD ^b | > 100 µM | ε ([2]; MeCN (298 K)): 1.2 × 10^4 M^–1 cm^–1; λabs ([2]; MeCN (298 K)): 450 nm; λem ([2]; MeCN (298 K)): 625 nm; ε [2, 9]: 1.1 × 10^4 M^–1 cm^–1; Φ (luminescence quantum yield) [2, 9]: 5.6%; contribution of τ1 (short-lived component) to the decay ([3]; Tris-HCl buffer, biexponential fit): less than 1%; τ2 [3, 11]: 672 ns; contribution of τ1 to the decay [3, 12]: 6.6%; contribution of τ2 to the decay [3, 12]: 93.4%; uptake in ER+ cells compared to ER– cells (ICP-MS) [5]: slightly higher accumulation in ER– cells than in ER+ cells; intracellular luminescence, ER+ versus ER– cells (microscopy) (MCF-7 (ER+) cells [6]): no notable difference in luminescence between the two cell lines
2 | [Cl][Ru][Cl].c1ccc(-c2ccccn2)nc1.c1ccc(-c2ccccn2)nc1.c1ccc(-c2ccccn2)nc1 [[Ru(bpy)3]Cl2, reference compound] | no visible aggregates were observed | 1.6% | 453 nm | 630 nm | 156 ns | 205 ns | 329 ns | 357 ns | > 100 µM | NPD ^b | > 100 µM | Φ (luminescence quantum yield) [7]: 4.9^55%; 1O2 quantum yield (ΦΔ) [8]: 0.41
